This is an account of results in US9082985B2, “Arylsulfonic acid compound and use thereof as electron-acceptor material” (NISSAN CHEMICAL INDUSTRIES, LTD., priority 2008, dated 2015).

The structures appear in SMILES notation. Some results are limits rather than exact numbers.

The data set in a line: Solubility test: amount of cyclohexanol (CHA) added until the varnish became clouded. Type of data set: physicochemical. Particulars: varnish of arylsulfonic acid compound with PTA (0.5 molar equivalents; 1.0 for NSO-2) in 1 g DMI, solid content 7.0 wt %; amount of CHA when the varnish became clouded. The procedure:
The arylsulfonic acid compounds obtained in the above Examples 1 to 4 and Comparative Example 1 were subjected to a solubility test in solvent according to the following procedure.
The respective arylsulfonic acid compounds obtained in Examples 1 to 4 and 0.5 molar equivalents of PTA, relative to the compound, were dissolved in 1 g of 1,3-dimethyl-2-imidazolidinone (hereinafter abbreviated as DMI) so that the solid content was set at 7.0 wt %, thereby preparing varnishes.
Cyclohexanol (hereinafter abbreviated as CHA) was added to the resulting varnish to determine, as an index for solubility, an amount of CHA at the time when the varnish became clouded.
NSO-2 obtained in Comparative Example 1 and 1.0 molar equivalent of PTA, relative to NSO-2, were dissolved in 1 g of DMI so that the solid content was set at 7.0 wt %, thereby preparing a varnish.
CHA was added to the resulting varnish to determine, as an index for solubility, an amount of CHA at the time when the varnish became clouded.

In the case of `O=S(=O)(O)c1ccc2c(Oc3c(F)c(F)c(C(F)(F)F)c(F)c3F)cc(S(=O)(=O)O)cc2c1` [Example 7FNS-1, Perfluorotoluene naphthalenesulfonic acid compound], the “Amount of dissolution in CHA” value is given as over 10 g. For the compound `N#Cc1c(F)c(F)c(Oc2cc(S(=O)(=O)O)cc3cc(S(=O)(=O)O)ccc23)c(F)c1C#N` [Example 3FNS-1, Dicyanoperfluorotoluenesulfonic acid compound], the “Amount of dissolution in CHA” value turned out to be 8.0 g. As for `O=S(=O)(O)c1ccc2c(Oc3c(F)c(F)c(-c4c(F)c(F)c(Oc5cc(S(=O)(=O)O)cc6cc(S(=O)(=O)O)ccc56)c(F)c4F)c(F)c3F)cc(S(=O)(=O)O)cc2c1` [NSO-2, Naphthalenedisulfonic acid compound, reference compound], the “Amount of dissolution in CHA” value is reported as 3.3 g. The same measure for `N#Cc1c(F)c(F)c(Oc2cc(S(=O)(=O)O)cc3cc(S(=O)(=O)O)ccc23)c(F)c1F` [Example 4FNS-2, Cyanoperfluorotoluenesulfonic acid compound]: over 10 g; for `O=S(=O)(O)c1ccc2c(Oc3c(F)c(F)c(C(F)(F)C(F)=C(F)F)c(F)c3F)cc(S(=O)(=O)O)cc2c1` [Example 9FNS-1, Perfluoroallylbenzene naphthalenesulfonic acid compound]: over 10 g.
